Holding throughout (type): cell-based
The subject of experiment [1] is LP Bacteria in form of biofilm. As to the kind of experiment: Effect of additives (cranberries, ascorbic acid) on Bacteria in form of biofilm survival and growth. The source says:
High vaginal pH is associated with an increase of vaginal pathogens and the acidity of the vagina has long been understood to be a protective mechanism against colonization of anaerobes pathogens while creating a favourable environment for the lactobacilli to thrive. Examining the effect of different additives (cranberries and ascorbic acid) on Bacteria in form of biofilm LP (as part of a small scale). […] The aim is to add one of these additives along with the Bacteria in form of biofilm in the suppository composition. As such, their effect on Bacteria in form of biofilm survival and growth was tested.

For the next experiment, the system named is Lactobacillus rhamnosus. As to the kind of experiment: Antibiotic MIC strip assay, planktonic LRh. The procedure:
(§1) For antibiotic assay, and overnight culture was diluted to an optical start density (OD) of 0.13. […] Plates were incubated at 37° C. for 24 h before minimum inhibitory concentration (MIC) value were determined.

Another experiment relates to Lactobacillus crispatus. Nature of the experiment: Antibiotic MIC strip assay, planktonic LCr. The following applies: for MIC: Lactobacillus crispatus. The procedure:
as §1

In another experiment the test system is Lactobacillus jensenii. Nature of the experiment: Antibiotic MIC strip assay, planktonic LJ. The following applies: for MIC: Lactobacillus jensenii. The procedure: as §1
The test system of the next experiment is Lactobacillus iners. As to the kind of experiment: Antibiotic MIC strip assay, planktonic LI. The procedure: as §1
The next experiment has as its system Lactobacillus gasseri. As to the kind of experiment: Antibiotic MIC strip assay, planktonic LG. The following applies: for MIC: Lactobacillus gasseri. The procedure:
as §1

Where [2] appears, read: Lacticaseibacillus rhamnosus, planktonic LRh, Table 7, read-out: MIC.
[3] abbreviates: Lacticaseibacillus rhamnosus, planktonic LRh, read-out: MIC.
Where [4] appears, read: planktonic LCr, MIC strips, 24 h 37° C., read-out: MIC.
Where [5] appears, read: planktonic LJ, MIC strips, 24 h 37° C., read-out: MIC.
[6] abbreviates: planktonic LI, MIC strips, 24 h 37° C., read-out: MIC.
Where [7] appears, read: planktonic LG, MIC strips, 24 h 37° C., read-out: MIC.

Values after ≈ are worked out from the molar mass of the structure shown. Like-named read-outs stand apart in the source and are kept apart here.

Take `O=C1O[C@H]([C@@H](O)CO)C(O)=C1O` [AA, Ascorbic Acid]: in experiment [1], the “effect of addition of supplement on Bacteria in form of biofilm growth” value is given as “did not affect”.
On to `CC1(C)S[C@@H]2[C@H](NC(=O)C(C(=O)O)c3ccccc3)C(=O)N2[C@H]1C(=O)O` (stereo partly drawn) [CB, carbenicillin], for which the MIC in the experiment with Lactobacillus rhamnosus (setting [2]) amounted to 4 µg/mL (≈ 10.6 µM); in the experiment on Lactobacillus rhamnosus (setting [3]), 4 µg/mL (≈ 10.6 µM); in the experiment on Lactobacillus crispatus (setting [4]), 4 µg/mL (≈ 10.6 µM); in the experiment on Lactobacillus jensenii (setting [5]), 8 µg/mL (≈ 21.1 µM); in the experiment with Lactobacillus iners (setting [6]) it was 64 µg/mL (≈ 169 µM); in the experiment with Lactobacillus gasseri (setting [7]), 4 µg/mL (≈ 10.6 µM).
In the case of `O=C(O)c1cn(C2CC2)c2cc(N3CCNCC3)c(F)cc2c1=O` [CIP, ciprofloxacin], the minimum inhibitory concentration (MIC) in the experiment on Lactobacillus rhamnosus (setting [2]) is 2 µg/mL (≈ 6.04 µM); in the experiment with Lactobacillus rhamnosus (setting [3]) it was 0.25 µg/mL (≈ 0.754 µM); in the experiment on Lactobacillus crispatus (setting [4]), > 256 µg/mL; in the experiment on Lactobacillus jensenii (setting [5]) it was > 256 µg/mL; in the experiment on Lactobacillus gasseri (setting [7]), > 256 µg/mL. Besides, the “susceptibility of planktonic bacteria to antibiotic” value in the experiment on Lactobacillus crispatus (planktonic LCr) was “not susceptible”; in the experiment with Lactobacillus jensenii (planktonic LJ), “not susceptible”; with Lactobacillus gasseri (planktonic LG) it was “full resistance”.
Turning to `CO[C@@H]1[C@@H](OC(N)=O)[C@@H](O)[C@H](Oc2ccc3c(O)c(NC(=O)c4ccc(O)c(CC=C(C)C)c4)c(=O)oc3c2C)OC1(C)C` [NVB, novobiocin], the MIC in the experiment with Lactobacillus rhamnosus (setting [2]) is 2 µg/mL (≈ 3.26 µM); with Lactobacillus rhamnosus (setting [3]), 2 µg/mL (≈ 3.26 µM); in the experiment with Lactobacillus crispatus (setting [4]), 2 µg/mL (≈ 3.26 µM); in the experiment on Lactobacillus jensenii (setting [5]), 2 µg/mL (≈ 3.26 µM); with Lactobacillus iners (setting [6]), 16 µg/mL (≈ 26.1 µM); in the experiment with Lactobacillus gasseri (setting [7]) it was 2 µg/mL (≈ 3.26 µM).
As for `CN[C@H](CC(C)C)C(=O)N[C@H]1C(=O)N[C@@H](CC(N)=O)C(=O)N[C@H]2C(=O)N[C@H]3C(=O)N[C@H](C(=O)N[C@H](C(=O)O)c4cc(O)cc(O)c4-c4cc3ccc4O)[C@H](O)c3ccc(c(Cl)c3)Oc3cc2cc(c3O[C@@H]2O[C@H](CO)[C@@H](O)[C@H](O)[C@H]2O[C@H]2C[C@](C)(N)[C@H](O)[C@H](C)O2)Oc2ccc(cc2Cl)[C@H]1O` [VAN, vancomycin], the minimal inhibitory concentration (MIC) was > 256 µg/mL against Lactobacillus rhamnosus (Lacticaseibacillus rhamnosus); >256 µg/mL with Lactobacillus rhamnosus (planktonic LRh, Table 7); 1.5 µg/mL (≈ 1.04 µM) with Lactobacillus crispatus (24 h); 1.5 µg/mL (≈ 1.04 µM) in the experiment with Lactobacillus jensenii (24 h); 4 µg/mL (≈ 2.76 µM) against Lactobacillus iners (24 h); 1.5 µg/mL (≈ 1.04 µM) against Lactobacillus gasseri (24 h).

One may read the MIC as the least concentration at which growth counts as inhibited.
